{"source": "patent US8609672B2", "about": "“Piperazinylpyrimidine analogues as protein kinase inhibitors” (University of the Pacific, priority 2010, dated 2013)", "key": {"M0LT-4": {"test_system": "M0LT-4", "assay": "NCI-60 SRB growth inhibition: M0LT-4", "assay_type": "cell-based, human", "settings": "M0LT-4, Leukemia; 48 hours treatment"}, "HL-6O(TB)": {"test_system": "HL-6O(TB)", "assay": "NCI-60 SRB growth inhibition: HL-6O(TB)", "assay_type": "cell-based, human", "settings": "Leukemia, 48 hours treatment"}, "UACC-62": {"test_system": "UACC-62", "assay": "NCI-60 SRB growth inhibition: UACC-62", "assay_type": "cell-based, human", "settings": "UACC-62, Melanoma; 48 hours treatment"}, "NCI-H226": {"test_system": "NCI-H226", "assay": "NCI-60 SRB growth inhibition: NCI-H226", "assay_type": "cell-based, human", "settings": "NCI-H226, Non-small cell lung cancer; 48 hours treatment"}, "SF-268": {"test_system": "SF-268", "assay": "NCI-60 SRB growth inhibition: SF-268", "assay_type": "cell-based, human", "settings": "SF-268, CNS cancer; 48 hours treatment"}, "ABL1(F317I)": {"target": "T1, ABL1(F317I) (Homo sapiens, UniProt P00519, F317I)", "T1 construct": "purchased Ambit Bioscience (assay service)", "T1 sequence (P00519 whole entry F317I)": "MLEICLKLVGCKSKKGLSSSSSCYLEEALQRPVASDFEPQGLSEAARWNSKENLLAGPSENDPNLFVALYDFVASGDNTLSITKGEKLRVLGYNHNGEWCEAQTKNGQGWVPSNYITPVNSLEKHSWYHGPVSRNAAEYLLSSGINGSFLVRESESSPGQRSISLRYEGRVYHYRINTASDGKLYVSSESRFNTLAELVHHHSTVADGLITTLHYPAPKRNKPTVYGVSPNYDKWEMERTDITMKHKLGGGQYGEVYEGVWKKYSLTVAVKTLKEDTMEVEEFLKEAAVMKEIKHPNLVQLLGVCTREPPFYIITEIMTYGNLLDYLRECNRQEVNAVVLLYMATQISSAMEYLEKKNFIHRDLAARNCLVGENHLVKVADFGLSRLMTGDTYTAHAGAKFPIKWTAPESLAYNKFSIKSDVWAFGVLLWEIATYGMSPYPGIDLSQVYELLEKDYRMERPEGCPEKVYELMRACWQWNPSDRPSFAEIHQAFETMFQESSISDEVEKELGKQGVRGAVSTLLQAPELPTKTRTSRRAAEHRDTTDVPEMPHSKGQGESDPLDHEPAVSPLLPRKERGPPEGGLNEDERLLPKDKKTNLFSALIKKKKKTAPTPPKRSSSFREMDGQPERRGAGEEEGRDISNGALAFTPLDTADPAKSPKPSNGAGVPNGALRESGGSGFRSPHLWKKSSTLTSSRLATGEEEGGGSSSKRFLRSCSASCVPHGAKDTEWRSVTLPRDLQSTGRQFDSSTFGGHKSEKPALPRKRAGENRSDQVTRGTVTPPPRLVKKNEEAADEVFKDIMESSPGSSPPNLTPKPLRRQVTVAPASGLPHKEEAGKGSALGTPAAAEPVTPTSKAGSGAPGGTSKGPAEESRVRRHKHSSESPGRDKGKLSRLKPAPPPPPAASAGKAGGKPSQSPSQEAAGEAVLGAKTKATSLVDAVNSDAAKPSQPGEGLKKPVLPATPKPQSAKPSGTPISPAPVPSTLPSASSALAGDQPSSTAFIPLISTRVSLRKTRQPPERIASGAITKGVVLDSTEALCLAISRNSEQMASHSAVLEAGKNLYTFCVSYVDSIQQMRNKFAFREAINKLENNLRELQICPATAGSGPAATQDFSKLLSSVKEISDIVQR", "assay": "Kinase binding screening: ABL1(F317I)", "settings": "10 μM compound, phosphorylated form, read-out: B-POC (binding percentage of control)", "protocol": "(§1) Biotinylated kinase ligand was immobilized onto streptavidin coated magnetic beads and washed with blocking buffer. The liganded beads were then incubated with DNA-tagged kinase in the presence of test compound for 1 h at room temperature. Binding reactions were carried out in 20% Seablock, 0.17×PBS, 0.005% Tween 20, 6 mM DTT, in a final volume of 0.04 mL. Beads were then washed with wash buffer (PBS, 0.05% Tween 20), and then incubated with elution buffer (PBS, 0.05% Tween […] non-biotinylated kinase ligand) and eluted. The kinase concentration in the eluate was then measured by quantitative PCR. […] The results of this single dose screening are reported in the form of binding percentage of control (B-POC) which is defined as follows:\n(§2) [formula] The negative control signal is obtained by the vehicle and corresponds to B-POC=100%. The positive signal control is detected by a binding positive compound and is B-POC 0%. The B-POC results are the average of duplicate measurements. Only interactions with […] were considered significant and thus used for calculating the selectivity scores (Table 1) of the test compounds as follows:\n(§3) [formula] […] The Kd is then calculated according to the following equation:\n(§4) [formula] hill slope=−1. A non-linear least square fit with the Levenberg-Marquardt algorithm was implemented to fit the curves (FIG. 3). […]"}, "MDA-MB-231/ATCC": {"test_system": "MDA-MB-231/ATCC", "assay": "NCI-60 SRB growth inhibition: MDA-MB-231/ATCC", "assay_type": "cell-based, human", "settings": "Breast cancer, 48 hours treatment"}, "HT29": {"test_system": "HT29", "assay": "NCI-60 SRB growth inhibition: HT29", "assay_type": "cell-based, human", "settings": "HT29, Colon cancer, 48 hours treatment; for CC50: Homo sapiens, HT-29, read-out: LC50 (the source's name)"}, "HOP-92": {"test_system": "HOP-92", "assay": "NCI-60 SRB growth inhibition: HOP-92", "assay_type": "cell-based, human", "settings": "HOP-92, Non-small cell lung cancer; 48 hours treatment"}, "NCI-60 cell line panel": {"test_system": "NCI-60 cell line panel", "assay": "NCI-60 SRB growth inhibition: mean over the panel", "assay_type": "cell-based, human", "settings": "mean over NCI-60 cell lines, 48 hours treatment; for GI50 / CC50: Homo sapiens; for CC50: read-out: Mean LC50"}, "IGROVI": {"test_system": "IGROVI", "assay": "NCI-60 SRB growth inhibition: IGROVI", "assay_type": "cell-based, human", "settings": "Ovarian cancer, 48 hours treatment; for CC50: Homo sapiens, read-out: LC50 (the source's name)"}, "SF-539": {"test_system": "SF-539", "assay": "NCI-60 SRB growth inhibition: SF-539", "assay_type": "cell-based, human", "settings": "SF-539, CNS cancer; 48 hours treatment"}, "CCRF-CEM": {"test_system": "CCRF-CEM", "assay": "NCI-60 SRB growth inhibition: CCRF-CEM", "assay_type": "cell-based, human", "settings": "Leukemia, 48 hours treatment"}, "MDA-MB-468 [1]": {"test_system": "MDA-MB-468", "assay": "Cell cycle analysis of MDA-MB-468 cells", "assay_type": "cell-based, human", "settings": "MDA-MB-468, within 24 hours"}, "MDA-MB-468 [2]": {"test_system": "MDA-MB-468", "assay": "Annexin V assay, MDA-MB-468 cells", "assay_type": "cell-based, human", "settings": "MDA-MB-468, higher doses, within 24 hours"}, "ABL1(F317L)": {"target": "T2, ABL1(F317L) (Homo sapiens, UniProt P00519, F317L)", "T2 construct": "purchased Ambit Bioscience (assay service)", "T2 sequence (P00519 whole entry F317L)": "as the sequence (P00519 whole entry F317I) above, with I317L counted along it", "assay": "Kinase binding screening: ABL1(F317L)", "settings": "10 μM compound, phosphorylated form, read-out: B-POC (binding percentage of control)", "protocol": "as §1, §2, §3, §4"}}}
{"smiles": "c1ccc(Cc2cnc(N3CCN(c4ncnc5ccccc45)CC3)nc2)cc1", "note": "[Compound 4, 4-(4-(5-benzylpyrimidin-2-yl)piperazin-1-yl)quinazoline]", "values": [{"measurement": "TGI", "setting": "M0LT-4", "result": 40.60, "unit": "µM"}, {"measurement": "TGI", "setting": "HL-6O(TB)", "result": 41.80, "unit": "µM"}, {"measurement": "TGI", "setting": "UACC-62", "result": 25.90, "unit": "µM"}, {"measurement": "TGI", "setting": "NCI-H226", "result": 48.40, "unit": "µM"}, {"measurement": "TGI", "setting": "SF-268", "result": 57.20, "unit": "µM"}, {"measurement": "remaining activity at 10 µM", "setting": "ABL1(F317I)", "result": 30, "unit": "%"}, {"measurement": "TGI", "setting": "MDA-MB-231/ATCC", "result": 38.10, "unit": "µM"}, {"measurement": "TGI", "setting": "HT29", "result": 35.10, "unit": "µM"}, {"measurement": "CC50", "setting": "HT29", "result": 79.2, "unit": "µM"}, {"measurement": "TGI", "setting": "HOP-92", "result": 24.20, "unit": "µM"}, {"measurement": "GI50", "setting": "NCI-60 cell line panel", "result": 5.24, "unit": "µM"}, {"measurement": "CC50", "setting": "NCI-60 cell line panel", "result": 81.3, "unit": "µM"}, {"measurement": "Mean TGI", "setting": "NCI-60 cell line panel", "result": 37.15, "unit": "µM"}, {"measurement": "CC50", "setting": "IGROVI", "result": "> 100", "unit": "µM"}, {"measurement": "TGI", "setting": "IGROVI", "result": 63.30, "unit": "µM"}, {"measurement": "TGI", "setting": "SF-539", "result": 28.50, "unit": "µM"}, {"measurement": "TGI", "setting": "CCRF-CEM", "result": 64.40, "unit": "µM"}]}
{"smiles": "CCc1cnc(N2CCN(C(=O)c3ccc(CNc4ncnc5ccccc45)cc3)CC2)nc1", "note": "[Compound 15, (4-(5-ethylpyrimidin-2-yl)piperazin-1-yl)(4-((quinazolin-4-ylamino)methyl)phenyl)methanone]", "values": [{"measurement": "TGI", "setting": "M0LT-4", "result": 27.60, "unit": "µM"}, {"measurement": "TGI", "setting": "HL-6O(TB)", "result": 38.60, "unit": "µM"}, {"measurement": "cell cycle effect", "setting": "MDA-MB-468 [1]", "result": "arrest at the G2/M phase of the cell cycle"}, {"measurement": "TGI", "setting": "UACC-62", "result": 80.90, "unit": "µM"}, {"measurement": "TGI", "setting": "NCI-H226", "result": ">100", "unit": "µM"}, {"measurement": "TGI", "setting": "SF-268", "result": ">100", "unit": "µM"}, {"measurement": "TGI", "setting": "MDA-MB-231/ATCC", "result": 84.90, "unit": "µM"}, {"measurement": "TGI", "setting": "HT29", "result": 83.20, "unit": "µM"}, {"measurement": "CC50", "setting": "HT29", "result": "> 100", "unit": "µM"}, {"measurement": "TGI", "setting": "HOP-92", "result": 80.09, "unit": "µM"}, {"measurement": "GI50", "setting": "NCI-60 cell line panel", "result": 4.46, "unit": "µM"}, {"measurement": "CC50", "setting": "NCI-60 cell line panel", "result": "> 100", "unit": "µM"}, {"measurement": "Mean TGI", "setting": "NCI-60 cell line panel", "result": 51.28, "unit": "µM"}, {"measurement": "CC50", "setting": "IGROVI", "result": "> 100", "unit": "µM"}, {"measurement": "TGI", "setting": "IGROVI", "result": 49.80, "unit": "µM"}, {"measurement": "apoptosis (Annexin V)", "setting": "MDA-MB-468 [2]", "result": "a significant fraction of the tumor cells undergo apoptosis"}, {"measurement": "TGI", "setting": "SF-539", "result": ">100", "unit": "µM"}, {"measurement": "remaining activity at 10 µM", "setting": "ABL1(F317L)", "result": 6.8, "unit": "%"}, {"measurement": "TGI", "setting": "CCRF-CEM", "result": 60.90, "unit": "µM"}]}
{"smiles": "O=C(c1cccc(Nc2ncnc3ccccc23)c1)N1CCN(c2ncc(Cc3ccccc3)cn2)CC1", "note": "[Compound 16, (4-(5-benzylpyrimidin-2-yl)piperazin-1-yl)(3-(quinazolin-4-ylamino)phenyl)methanone]", "values": [{"measurement": "TGI", "setting": "M0LT-4", "result": 1.34, "unit": "µM"}, {"measurement": "TGI", "setting": "HL-6O(TB)", "result": 1.54, "unit": "µM"}, {"measurement": "TGI", "setting": "UACC-62", "result": 1.86, "unit": "µM"}, {"measurement": "TGI", "setting": "NCI-H226", "result": 2.09, "unit": "µM"}, {"measurement": "TGI", "setting": "SF-268", "result": ">100", "unit": "µM"}, {"measurement": "remaining activity at 10 µM", "setting": "ABL1(F317I)", "result": 20, "unit": "%"}, {"measurement": "TGI", "setting": "MDA-MB-231/ATCC", "result": 2.95, "unit": "µM"}, {"measurement": "TGI", "setting": "HT29", "result": 9.33, "unit": "µM"}, {"measurement": "CC50", "setting": "HT29", "result": "> 100", "unit": "µM"}, {"measurement": "GI50", "setting": "NCI-60 cell line panel", "result": 1.05, "unit": "µM"}, {"measurement": "Mean TGI", "setting": "NCI-60 cell line panel", "result": 3.24, "unit": "µM"}, {"measurement": "CC50", "setting": "IGROVI", "result": 5.01, "unit": "µM"}, {"measurement": "TGI", "setting": "IGROVI", "result": 1.82, "unit": "µM"}, {"measurement": "TGI", "setting": "SF-539", "result": 4.90, "unit": "µM"}]}
